Test results: patent US5476944A, “Derivatives of cyclic phenolic thioethers” (G. D. Searle & Co., priority 1994, dated 1995)
pIC50: −log10 of the molar value. Where two headings read alike, the source gives them in different places. Values belong to the molecule of their own block, whether it stands above or below them.

How the values were obtained:
[1] = tested on: Rats; assay: Chronic adjuvant-induced polyarthritis test; type: in vivo; conditions: intragastric; for minimal effective dose: Rattus norvegicus, po, 456 h, 18 days, rats, read-out: Minimum dose to result in a statistically significant reduction [p < 0.05] in the paw volume/body weight ratio; for % Inhibition in the paw volume to body weight ratio: at minimum significant dose 25 mg/kg/day, day 19, rats
Method: Chronic adjuvant-induced polyarthritis test:
Rats [50-70 gm] were weighed, ear tagged and intradermally inoculated in the tail base with 2.0 mg of heat killed M. butyricum suspended in 0.05 ml of white paraffin oil [n=12-15 per group]. Compounds were intragastrically administered beginning on the day of inoculation and continued for 18 days. Each daily dose was split [dose volume=0.5 ml/100 gm] and given approximately 7 hours apart. Animals were weighed every 3 days, and the dose was adjusted accordingly. On day 19, animals were sacrificed by inhalation of CO2, weighed, and total hind paw volume was measured by the displacement of water with a plethysmometer (Ugo Basile, Varese, Italy). A group of age-matched naive rats were included. These rats, designated "normal," were not inoculated with adjuvant or gavaged with vehicle.
For individual experiments, the paw volume/body weight ratios for each dose were compared to the ratio for the vehicle treated control group by a two-tailed Dunnett's t-test (p ≤0.05). The Dunnett's test was preceded by a Bartlett's test of variance homogeneity across the dose groups. If the Bartlett's test was significant, an appropriate variance stabilizing transformation was applied to the data, and the Dunnett's test was performed on the transformed data.

[2] = molecular target: T1, Sheep Seminal Vesicle Microsome Cyclooxygenase (Ovis aries, UniProt P05979); assay: Inhibition of Sheep Seminal Vesicle Microsome Cyclooxygenase; type: biochemical; conditions: for pIC50: sheep seminal vesicle microsomes
T1 construct: Lyophilized ovine microsome (approximately 1 mg) suspended in 2.9 ml Tris-HCl buffer; from tissue; host or cells: sheep seminal vesicle microsomes, lyophilized
T1 sequence (P05979 25-600): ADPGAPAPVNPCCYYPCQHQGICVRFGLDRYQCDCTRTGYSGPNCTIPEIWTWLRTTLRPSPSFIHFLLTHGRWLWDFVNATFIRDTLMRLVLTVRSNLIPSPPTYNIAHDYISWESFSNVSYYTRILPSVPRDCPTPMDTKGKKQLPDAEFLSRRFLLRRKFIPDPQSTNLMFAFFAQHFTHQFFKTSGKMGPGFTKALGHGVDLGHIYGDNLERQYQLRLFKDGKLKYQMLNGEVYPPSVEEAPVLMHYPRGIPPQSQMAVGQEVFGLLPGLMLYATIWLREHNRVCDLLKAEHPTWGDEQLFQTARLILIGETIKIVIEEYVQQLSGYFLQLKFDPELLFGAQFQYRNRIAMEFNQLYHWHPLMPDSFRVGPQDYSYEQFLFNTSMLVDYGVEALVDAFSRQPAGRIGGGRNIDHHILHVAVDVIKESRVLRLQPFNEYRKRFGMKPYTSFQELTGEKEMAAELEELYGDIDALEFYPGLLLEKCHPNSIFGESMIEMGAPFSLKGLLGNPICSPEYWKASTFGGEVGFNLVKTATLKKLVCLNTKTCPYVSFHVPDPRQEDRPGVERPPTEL
Method: The compounds of the present invention evaluated with respect to cyclooxygenase inhibition according to the following assay procedure. Inhibition of Sheep Seminal Vesicle Microsome Cyclooxygenase: This assay was based on oxygen consumption during conversion of arachidonic acid to prostaglandin G2 catalyzed by cyclooxygenase BIOCHEM. 11:3276-3285 (1972), which is incorporated herein by reference. Lyophilized ovine microsome (approximately 1 mg) suspended in 2.9 ml Tris-HCl buffer, pH 8.2, containing 0.7 mM phenol were used as source of arachidonate cyclooxygenase. The inhibitor, 50 μl in DMSO, was added and the mixture was preincubated for 5 minutes at 37° C. Fifty μl of arachidonic acid (final concentration 50 μM) was added to start the reaction. The slopes of the initial rates of oxygen uptake, in the presence and absence of inhibitor, were compared to determine reaction inhibition. Percent inhibition was computed using the following formula: [formula]

[3] = molecular target: T2, 5-lipoxygenase (Rattus norvegicus, UniProt P12527); assay: Inhibition of 5-lipoxygenase, in vitro (5-HETE formation, RBL-1 homogenate supernatant); type: biochemical
T2 construct: The 100,000×g supernatant fraction of Rat Basophilic Leukemia Cell Homogenate (RBL-1); endogenous in cells; host or cells: RBL-1 (rat basophilic leukemia) cells, 100,000xg supernatant of homogenate
T2 sequence (P12527 1-673): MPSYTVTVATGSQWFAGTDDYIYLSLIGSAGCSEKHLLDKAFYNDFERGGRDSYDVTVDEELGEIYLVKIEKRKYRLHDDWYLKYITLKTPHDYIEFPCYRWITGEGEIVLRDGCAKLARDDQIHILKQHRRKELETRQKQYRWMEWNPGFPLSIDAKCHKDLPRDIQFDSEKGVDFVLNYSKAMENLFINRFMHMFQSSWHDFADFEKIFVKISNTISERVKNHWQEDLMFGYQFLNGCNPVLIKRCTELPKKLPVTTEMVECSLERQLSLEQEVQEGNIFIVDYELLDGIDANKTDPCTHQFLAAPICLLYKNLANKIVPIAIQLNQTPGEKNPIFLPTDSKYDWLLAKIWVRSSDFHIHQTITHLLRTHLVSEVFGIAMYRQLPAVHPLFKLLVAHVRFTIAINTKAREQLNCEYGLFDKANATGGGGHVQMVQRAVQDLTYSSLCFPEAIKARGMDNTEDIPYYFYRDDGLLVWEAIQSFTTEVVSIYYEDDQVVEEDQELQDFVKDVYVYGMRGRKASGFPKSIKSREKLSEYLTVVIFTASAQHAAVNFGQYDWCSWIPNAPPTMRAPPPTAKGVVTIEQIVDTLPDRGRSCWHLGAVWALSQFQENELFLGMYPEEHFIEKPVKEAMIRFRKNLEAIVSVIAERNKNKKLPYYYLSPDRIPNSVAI
Method: The compounds of the invention are evaluated with respect to 5-lipoxygenaseinhibition according to the following assay procedure.
Inhibition of 5-lipoxygenase, in vitro:
The 100,000×g supernatant fraction of Rat Basophilic Leukemia Cell Homogenate (RBL-1) serves as a 5-lipoxygenase enzyme source. The enzyme is incubated with [1-^4 C)-arachidonic acid and Ca++ in the presence and absence of test compound. The product of 5-lipoxygenase, 5-hydroxyeicosatetraenoic acid (5-HETE), is separated by thin-layer chromatography and measured by radioactivity. A compound inhibiting 5-HETE synthesis by 30% or more is considered active at that concentration.
For comparison the compound of Formula XX, a known 5-lipoxygenase inhibitor described in U.S. Pat. No. 4,755,524 was used: [drawing 29] (±)[2S*-[[3,5-bis(1,1-dimethylethyl)-4-hydroxyphenyl]thio]-1R*-methylpro poxy]acetic acid.

[4] = tested on: Human neutrophil superoxide generation; assay: Human neutrophil superoxide generation, FMLP-induced; type: cell-based
Method: The compounds of the present invention are evaluated with respect to superoxide modulating activity according to the following assay procedure:
Human neutrophil superoxide generation:
Superoxide generation by formyl-methionyl-leucyl-phenylalanine (FMLP)-stimulated neutrophils was quantitated by the reduction of cytochrome C (Badwey, J. A., Curnutte, J. T. and Karnovsky, M. L., cis-Polyunsaturated fatty acids induce high levels of superoxide production by human neutrophils. J. BIOL. CHEM. 256: 12640-12643, 1981, which is incorporated herein by reference.) To 5 million neutrophils in 2.85 ml of Krebs-Ringer phosphate buffer, pH 7.2, 50 ul of inhibitor (in 10% DMSO/buffer), and 50 ul ferricytochrome C (5 mM, stock) were added and preincubated for 3 minutes at 37° C. Absorption measurements at 550 nm were recorded at start of preincubation. Fifty ul FMLP (6 uM, stock) was added to initiate reaction. A plateau was reached within 3 minutes and this reading minus the initial reading (before addition of FMLP) was used to calculate nanomoles of superoxide generated based on a molar extinction coefficient of 2.1×10^4 cm^-1 mole^-1.
Isolation of human neutrophils:
Human neutrophils were isolated from freshly drawn blood of healthy donors. […] The red cell lysing procedure was repeated, the cells suspended in appropriate buffer (depending on assay) and counted.

[5] = insertion of the thio group; cited from earlier work
[6] = tested on: COX II enzyme; conditions: metabolite of nabumetone; cited from earlier work
[7] = in vivo; cited from earlier work
[8] = relative to histamine; cited from earlier work

- pIC50 [2]: 5.42
Structure (SMILES): CC(C)(C)c1cc(S[C@@H]2CCCC[C@H]2OCC(=O)O)cc(C(C)(C)C)c1 (relative stereo) [Example 17, trans-[[2-[[3,5-bis(1,1-dimethylethyl)phenyl]thio]cyclohexyl]oxy]acetic acid]
- minimal effective dose [1]: 25 mg/kg/day
- % Inhibition in the paw volume to body weight ratio [1]: 50.8%

Structure (SMILES): O=C(O)CS[C@@H]1CCCC[C@H]1Sc1ccccc1 (relative stereo) [Example 7, trans-[[2-(phenylthio)cyclohexyl]thio]acetic acid]
- 5-lipoxygenase inhibition (in words) [3]: did not inhibit either 5-lipoxygenase or cyclooxygenase
- cyclooxygenase inhibition (in words) [2]: did not inhibit either 5-lipoxygenase or cyclooxygenase
- superoxide generation (in words) [4]: did inhibit superoxide generation

Structure (SMILES): CC(C)(C)c1cc(SC2CCOC2=O)cc(C(C)(C)C)c1O (stereo not shown) [Compound 3]
- anti-inflammatory activity (in words) [5]: loss of anti-inflammatory activity

- pIC50 [2]: 5.51
Structure (SMILES): CC(C)(C)c1cc(S[C@@H]2CCCC[C@H]2SCC(=O)O)cc(C(C)(C)C)c1 (relative stereo) [Example 5, trans-[[2-[[3,5-bis(1,1-dimethylethyl)phenyl]thio]cyclohexyl]thio]acetic acid]
- minimal effective dose [1]: 25 mg/kg/day
- % Inhibition in the paw volume to body weight ratio [1]: 64.4%

Structure (SMILES): COc1ccc2cc(CC(=O)O)ccc2c1 [6-methoxy-2-napthylacetic acid]
- selective inhibition of COX II (in words) [6]: selectively inhibit the COX II enzyme

Structure (SMILES): CS(=O)(=O)Nc1ccc([N+](=O)[O-])cc1OC1CCCCC1 [N-(2-cyclohexyloxy-4-nitrophenyl)methanesulfonamide]
- anti-inflammatory activity (in words) [7]: anti-inflammatory
- gastric side effects (in words) [7]: lacks gastric side effects

Structure (SMILES): CCCCC/C=C\C\C=C/C=C/C=C/[C@@H](SC[C@H](NC(=O)CC[C@H](N)C(=O)O)C(=O)NCC(=O)O)[C@@H](O)CCCC(=O)O [LTC4]
- potency versus histamine in causing long lasting bronchoconstricting effects [8]: at least 100 times

Structure (SMILES): C[C@H](Sc1cc(C(C)(C)C)c(O)c(C(C)(C)C)c1)[C@@H](C)OCC(=O)O (relative stereo) [Formula XX, (±)[2S*-[[3,5-bis(1,1-dimethylethyl)-4-hydroxyphenyl]thio]-1R*-methylpropoxy]acetic acid, reference compound]
- 5-lipoxygenase inhibition (in words) [3]: inhibited both superoxide generation and 5-lipoxygenase
- superoxide generation (in words) [4]: inhibited both superoxide generation and 5-lipoxygenase
